Like-named read-outs stand apart in the source and are kept apart here. Where no end group is shown, it is not given here.
How the values were obtained:
[1] = test system: PMAIP1 (NOXA) and BBC3 (PUMA); test: ddPCR of TP53 target genes; format: cell-based, human
Procedure: Primers and probes were designed specifically for ddPCR for human BBC3 (Bio-Rad Cat# 10031255, Assay ID dHsaCPE5034069) and PMAIP1(Bio-Rad Cat# 10031252, Assay ID dHsa5037552) genes. RNA was extracted using the Qiagen RNeasy Kit (Cat# 74004). 5 ng of RNA was used for 22 µl PCR reaction mixtures using the One-Step RT-ddPCR Advanced Kit for Probes (Bio-Rad Cat# 1864022) following the manufacturer's protocol. ddPCR droplets were generated using the Bio-Rad Automated Droplet Generator. Plate containing ddPCR droplets was sealed and RT-PCR was performed using the C-1000 Thermal Cycler (Bio-Rad). ddPCR was performed in the QX200 Droplet Digital PCR System (Bio-Rad). Analysis of the ddPCR data was performed using QX200 analysis software.

TP53 = molecular target: T1, TP53 (Homo sapiens, UniProt P04637); test: Bio-layer Interferometry, TP53; format: binding; details: BLI
T1 construct: purchased Millipore Sigma Aldrich 23-034
Procedure: Bio-layer Interferometry (BLI) measurements were performed on a ForteBio Octet RED384 instrument (Molecular Devices) using ForteBio Data Acquisition software 9.0 and ForteBio biosensors (Molecular Devices) according to the manufacturer's instructions. Kinetic assays were carried out at 30°C using settings of Standard Kinetics Acquisition rate (5.0 Hz, averaging by 20) at a sample plate shake speed of 1,000 rpm. Streptavidin sensors (SA) (ForteBio) equilibrated in PBS were mock loaded (no ligand reference sensor) or loaded with 50 nM of N- terminal biotinylated ES2 peptide (New England Peptide, Inc.) with an approximate response of 1 nm. Ligand loaded SA sensors equilibrated in Kinetics buffer (ForteBio) to establish a baseline, were dipped into wells containing 2-fold dilutions of TP53 (Millipore Sigma Aldrich; Cat# 23-034), FOXO4 (OriGene Technologies; Cat# TP760655) or GFP analytes in kinetics buffer, or buffer alone (reference sample). Increasing concentrations of analytes ranging from 6.2 - 200 nM were allowed to associate for 240 secs, followed by 600 sec dissociation step where the TP53/FOXO4-bound sensors were washed with kinetics buffer. Binding curves were analysed using ForteBio Data Analysis HT 10.0 evaluation software. To control for background signal and non-specific binding, raw experimental data were processed by subtracting reference biosensor and reference sample (no ligand). Processed data from at least six different concentrations of analyte binding were globally fit to a 1:1 Langmuir binding model to calculate the association rate constant ka, the dissociation rate constant kd to achieve R^2 > 0.90. Equilibrium dissociation constants KD which defines the strength of the interaction or affinity was calculated as the kinetic dissociation rate constant divided by the kinetic association rate constant.

[2] = test system: senescent A375 human melanoma cells; test: Orthotopic xenograft of senescent luciferase A375 cells in mouse ears; format: in vivo; details: NSG mouse ears, local injection 50 µL of 5 mg/mL once daily for two days, imaged 24 hours after second treatment; ANOVA p<0.01
From the text: Mice were aged between 3-8 months and 20-30 g in weight and were housed in specific pathogen free cages. Animals were randomly distributed among treatment groups by assigning mice within the same cage to different treatment regimens. To minimise confounders, mouse treatment order was randomised within each cage. Male and female mice were distributed between all treatment groups since the chemicals used were directly injected and are not metabolized. Researchers were not blinded to the group allocation, but all attempts were made to analyse the data without knowing treatment conditions. NOD.Cg-Prkdcscid Il2rgtm1Wjl/SzJ (NSG) were purchased from The Jackson Laboratory (IMSR Cat# JAX:005557, RRID:IMSR_JAX:005557). NOD.Cg-KitW-41J Tyr + Prkdcscid Il2rgtm1Wjl/ThomJ (NBSGW) were purchased from The Jackson Laboratory (IMSR Cat# JAX:026622, RRID:IMSR_JAX:026622). Immunocompromised mice used for these experiments were all in the NSG background; however, some mice were F1 generation of NSG x NBSGW, thus the brown coat colour as NBSGW mice have tyrosinase. Xenografts containing senescent cells were established by injecting A375-Luc/iRFP human melanoma cells which contained a luciferase expressing gene into immunocompromised NSG ears. Senescence was induced in the cells via doxorubicin treatment (40 nM) then resuspended in DMEM prior to injection. Each ear was then injected with 50 µL containing approximately 1,000,000 cells. The ears were treated once daily for two days with 50 µL of either 5 mg/mL peptide, or saline. To control for confounders, each mouse contained one ear treated with saline (control). For imaging, mice were injected with 3 mg luciferin intravenously and imaged before and after treatment. Transgenic mice (BrafCA, PtenloxP, Tyr::CreERT2) were purchased from The Jackson Laboratory (IMSR Cat# JAX:013590, RRID:IMSR_JAX:013590). These mice were maintained on a C57Bl6 background and all experimental mice contained Tyr::CreER with either Braf^CA/+, Pten^fx/+; Braf^CA/CA, Pten^fx/+, or Braf^CA/+, Pten^fx/fx. […] Hypopigmented melanomas sporadically formed over the next 3-5 months, typically on the back of the mouse. These melanomas were then directly injected with 100 µL of either 20 mg/mL ES2+10%DMSO, saline+10%DMSO, saline+10%Dabrafenib, or 20 mg/mL ES2+10%Dabrafenib. The researchers were not blinded to the experiment, but each mouse contained an internal control and all imaging was done with the same exposure times based upon control tissue. For survival analyses, either 750,000 or 25,000 A375-Luc/iRFP cells were injected intradermally into NSG mice. Different combinations of drugs were locally injected to the region once daily for two days with 50 µL of either 5 mg/mL ES2, 10%Dabrafenib, or 5mg/mL ES2+10%Dabrafenib. Dabrafenib was made at 100 mg/mL in DMSO. Mice were then monitored daily and allowed to age until a humane endpoint was reached according to our IACUC protocol, which in this case was tumours of 2 cm in size. Aged C57Bl6 male mice were purchased from the Jackson Laboratory (IMSR Car# JAX:000664, RRID:IMSR_JAX:000664) at 72 weeks of age and were started on the experiment at 82 weeks. Mice were treated with 3 mg of ES2 via tail vein injection weekly for three weeks and weighed weekly. Blood was drawn prior to beginning experiments and at the endpoint. To generate plasma, blood was centrifuged at 1,500g for 10 minutes, then 2,500g for 10 minutes, then frozen for later analyses. […]

T1 sequence (P04637 whole entry): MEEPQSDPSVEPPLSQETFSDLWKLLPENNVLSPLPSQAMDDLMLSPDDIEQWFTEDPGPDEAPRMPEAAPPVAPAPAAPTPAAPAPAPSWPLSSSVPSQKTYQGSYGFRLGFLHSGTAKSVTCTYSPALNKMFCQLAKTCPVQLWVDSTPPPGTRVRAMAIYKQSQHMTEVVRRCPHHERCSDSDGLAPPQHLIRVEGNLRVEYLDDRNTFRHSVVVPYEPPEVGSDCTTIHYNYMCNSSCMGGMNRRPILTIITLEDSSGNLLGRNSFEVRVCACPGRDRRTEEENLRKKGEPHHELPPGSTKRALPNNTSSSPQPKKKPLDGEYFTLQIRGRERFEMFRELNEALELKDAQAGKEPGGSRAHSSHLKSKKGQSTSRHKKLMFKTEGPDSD

With “PRKGGRRRRAWGRRRRRRRRRRRRRRAPRKRLTLA [ES2]” the “NOXA and PUMA levels in senescent cells” value ([1]; 30 minutes after ES2 treatment, n=6, p<0.001) was “significant increase in levels”, the “NOXA and PUMA levels in dividing cells” value ([1]; dividing cells) was “no response” and the kon (TP53; 1:1 Langmuir binding model, read-out: association rate ka) was 38000 M⁻¹ s⁻¹. It also gave a kd (TP53; biotinylated ES2 immobilized on streptavidin sensors, analyte 6.25-200 nM, 30°C, global 1:1 Langmuir fit) of 8.7e-05 ± 6.3e-07 s⁻¹, a kon (TP53; biotinylated ES2 immobilized on streptavidin sensors, analyte 6.25-200 nM, 30°C, global 1:1 Langmuir fit, read-out: ka) of 38000 M⁻¹ s⁻¹ and a Kd (TP53; biotinylated ES2 immobilized on streptavidin sensors, analyte 6.25-200 nM, 30°C, kd/ka) of 2.3 ± 0.02 nM. The “luciferase signal compared to E1 and saline” value [2] was “statistically significantly reduced luciferase signal”.

From publication PMC8546421, “Molecular modelling of the FOXO4-TP53 interaction to design senolytic peptides for the elimination of senescent cancer cells” (EBioMedicine, 2021)
